For one compound, Ki results are on record in ChEMBL document CHEMBL3098055 (Bioorg Med Chem Lett, 2014).

SMILES strings stand for the structures. Bridge positions count the residues as written; N and C are the ends. Square brackets hold non-standard residues; d marks the D form. Peptide text beside a SMILES is read from it. AllylGly = C=CC[C@H](N)C(=O)O

As a reminder, the Ki is the equilibrium dissociation constant of an inhibitor or competing ligand from its target. Low values mean tighter binding, high ones weaker binding.

Common to all, as to type: cell-based
In assay [1] the target is Somatostatin receptor type 1 (Homo sapiens, UniProt P30872). In words: Displacement of [125I]-somatostatin from human SSTR1 expressed in CHO-K1 cells.
Assay [2] has as its target Somatostatin receptor type 5 (Homo sapiens, UniProt P35346). In words: Displacement of [125I]-somatostatin from human SSTR5 expressed in CHO-K1 cells. (In a radioligand displacement assay an active substance lowers the binding of a labelled ligand.)
Assay [3] has as its target Somatostatin receptor type 3 (Homo sapiens, UniProt P32745). Briefly: Displacement of [125I]-somatostatin from human SSTR3 expressed in CHO-K1 cells.
Assay [4] has as its target Somatostatin receptor type 2 (Homo sapiens, UniProt P30874). Briefly: Displacement of [125I]-somatostatin from human SSTR2 expressed in CHO-K1 cells.
Assay [5] has as its target Somatostatin receptor type 4 (Homo sapiens, UniProt P31391). Briefly: Displacement of [125I]-somatostatin from human SSTR4 expressed in CHO-K1 cells.

Sequence of Somatostatin receptor type 2 (P30874 whole entry): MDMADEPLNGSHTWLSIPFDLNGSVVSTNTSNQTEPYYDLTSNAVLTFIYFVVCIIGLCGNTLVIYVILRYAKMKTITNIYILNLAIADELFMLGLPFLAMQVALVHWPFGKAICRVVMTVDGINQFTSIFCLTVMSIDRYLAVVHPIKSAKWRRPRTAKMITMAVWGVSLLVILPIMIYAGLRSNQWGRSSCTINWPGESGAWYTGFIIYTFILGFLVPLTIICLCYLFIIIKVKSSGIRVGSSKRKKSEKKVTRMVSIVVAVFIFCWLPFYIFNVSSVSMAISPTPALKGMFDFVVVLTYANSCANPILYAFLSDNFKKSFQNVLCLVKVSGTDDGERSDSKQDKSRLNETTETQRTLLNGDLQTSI
Sequence of Somatostatin receptor type 5 (P35346 whole entry): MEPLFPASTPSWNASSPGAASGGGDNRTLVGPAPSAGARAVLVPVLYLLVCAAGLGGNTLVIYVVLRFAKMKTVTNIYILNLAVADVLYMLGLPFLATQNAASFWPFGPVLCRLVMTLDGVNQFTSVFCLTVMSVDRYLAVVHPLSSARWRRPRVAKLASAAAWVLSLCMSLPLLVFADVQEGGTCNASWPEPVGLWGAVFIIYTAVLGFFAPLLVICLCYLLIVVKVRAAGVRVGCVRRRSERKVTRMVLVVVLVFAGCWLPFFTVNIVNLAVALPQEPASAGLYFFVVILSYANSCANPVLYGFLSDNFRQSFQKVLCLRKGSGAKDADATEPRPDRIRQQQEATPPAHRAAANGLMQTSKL
Sequence of Somatostatin receptor type 1 (P30872 whole entry): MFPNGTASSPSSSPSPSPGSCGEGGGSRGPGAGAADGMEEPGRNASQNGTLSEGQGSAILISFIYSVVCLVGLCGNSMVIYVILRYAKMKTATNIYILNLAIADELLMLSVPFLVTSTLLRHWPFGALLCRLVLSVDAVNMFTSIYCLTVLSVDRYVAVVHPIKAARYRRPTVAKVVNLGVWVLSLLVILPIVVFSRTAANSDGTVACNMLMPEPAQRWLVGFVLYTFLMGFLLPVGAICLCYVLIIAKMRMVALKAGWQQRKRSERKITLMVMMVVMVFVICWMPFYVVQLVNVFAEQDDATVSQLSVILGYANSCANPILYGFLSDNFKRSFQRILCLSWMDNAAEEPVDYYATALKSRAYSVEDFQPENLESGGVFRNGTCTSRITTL
Sequence of Somatostatin receptor type 3 (P32745 whole entry): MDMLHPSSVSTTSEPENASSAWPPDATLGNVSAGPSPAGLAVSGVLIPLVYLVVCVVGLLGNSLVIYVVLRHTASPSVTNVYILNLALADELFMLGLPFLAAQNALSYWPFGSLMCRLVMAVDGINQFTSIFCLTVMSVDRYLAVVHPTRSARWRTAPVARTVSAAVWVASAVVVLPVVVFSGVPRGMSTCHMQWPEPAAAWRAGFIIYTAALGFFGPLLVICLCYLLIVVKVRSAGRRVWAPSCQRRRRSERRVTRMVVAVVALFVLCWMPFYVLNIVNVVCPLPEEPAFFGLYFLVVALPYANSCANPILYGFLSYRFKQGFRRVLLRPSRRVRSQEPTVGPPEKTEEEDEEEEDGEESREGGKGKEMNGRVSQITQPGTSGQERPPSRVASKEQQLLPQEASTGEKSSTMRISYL
Sequence of Somatostatin receptor type 4 (P31391 whole entry): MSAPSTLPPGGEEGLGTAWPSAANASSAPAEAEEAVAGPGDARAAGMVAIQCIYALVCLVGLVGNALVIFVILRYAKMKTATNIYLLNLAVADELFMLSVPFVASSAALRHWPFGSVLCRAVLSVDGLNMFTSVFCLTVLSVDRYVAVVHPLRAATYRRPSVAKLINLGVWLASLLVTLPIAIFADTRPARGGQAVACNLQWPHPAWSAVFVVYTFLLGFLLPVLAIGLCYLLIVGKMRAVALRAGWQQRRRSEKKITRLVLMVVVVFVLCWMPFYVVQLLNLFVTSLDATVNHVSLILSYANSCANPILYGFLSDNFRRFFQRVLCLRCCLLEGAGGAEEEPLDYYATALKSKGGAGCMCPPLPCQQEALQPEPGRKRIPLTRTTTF

Take `C[C@H](N)C(=O)NCC(=O)N[C@H]1C/C=C\C[C@@H](C(N)=O)NC(=O)[C@H](CO)NC(=O)[C@H]([C@@H](C)O)NC(=O)[C@H](Cc2ccccc2)NC(=O)[C@H]([C@@H](C)O)NC(=O)[C@H](CCCCN)NC(=O)[C@H](Cc2c[nH]c3ccccc23)NC(=O)[C@H](Cc2ccccc2)NC(=O)[C@H](Cc2ccccc2)NC(=O)[C@H](CC(N)=O)NC(=O)[C@H](CCCCN)NC1=O` (H-AG[AllylGly]KNFFWKTFTS[AllylGly]-NH2; staple (Z) 3-14): the Ki in assay [1] worked out at 310 pM; in assay [2] it was 200 pM; in assay [3], 4240 pM; in assay [4], 410 pM; in assay [5] it was 1770 pM.
